Literature values as cited in article PMC5698879 (Inorganic Chemistry, 2017).
Read-outs that look alike come from different tables or passages of the source.

Conditions: [Cu^2+]tot = [chelator]tot = 50 μM

Calculated pCu (−log [Cu]free) (pH 6.6): 9.7
Calculated pCu (−log [Cu]free) (pH 7.4): 10.7
SMILES: O=C(O)CN(CCN(CC(=O)O)CC(=O)O)CCN(CC(=O)O)CC(=O)O [DTPA, diethylenetriaminepentacetic acid]
